Measured values taken from ChEMBL document CHEMBL5214952, “Unique iminotetrahydroberberine-corbelled metronidazoles as potential membrane active broad-spectrum antibacterial agents” (Bioorg Med Chem Lett, 2022).
≈ marks a conversion by molar mass, not a printed value. Calls of active or inactive are those of the source. The calls are words filed in the database; no cut-off is given here.

Assays:
Acinetobacter baumannii = assay: Antibacterial activity against Acinetobacter baumannii assessed as inhibition of bacterial growth by CLSI based continuous dilution method; assay type: functional
Staphylococcus aureus [1] = assay: Antibacterial activity against Staphylococcus aureus assessed as inhibition of bacterial growth by CLSI based continuous dilution method; assay type: functional
Escherichia coli [2] = assay: Antibacterial activity against Escherichia coli assessed as inhibition of bacterial growth by CLSI based continuous dilution method; assay type: functional
Staphylococcus aureus [3] = assay: Antibacterial activity against methicillin-resistant Staphylococcus aureus assessed as inhibition of bacterial growth by CLSI based continuous dilution method; assay type: functional
Klebsiella pneumoniae = assay: Antibacterial activity against Klebsiella pneumoniae assessed as inhibition of bacterial growth by CLSI based continuous dilution method; assay type: functional
Staphylococcus aureus [4] = assay: Antibacterial activity against Staphylococcus aureus ATCC 25923 assessed as inhibition of bacterial growth by CLSI based continuous dilution method; assay type: functional
Pseudomonas aeruginosa [5] = assay: Antibacterial activity against Pseudomonas aeruginosa ATCC 27853 assessed as inhibition of bacterial growth by CLSI based continuous dilution method; assay type: functional
Escherichia coli [6] = assay: Antibacterial activity against Escherichia coli ATCC 25922 assessed as inhibition of bacterial growth by CLSI based continuous dilution method; assay type: functional
Pseudomonas aeruginosa [7] = assay: Antibacterial activity against Pseudomonas aeruginosa assessed as inhibition of bacterial growth by CLSI based continuous dilution method; assay type: functional
Staphylococcus aureus [8] = assay: Antibacterial activity against Staphylococcus aureus ATCC 29213 assessed as inhibition of bacterial growth by CLSI based continuous dilution method; assay type: functional
Aspergillus fumigatus = assay: Antifungal activity against Aspergillus fumigatus assessed as inhibition of fungal growth by CLSI based continuous dilution method; assay type: functional, organism-based
Enterococcus faecalis = assay: Antibacterial activity against Enterococcus faecalis assessed as inhibition of bacterial growth by CLSI based continuous dilution method; assay type: functional
Pseudomonas aeruginosa [9] = assay: Antibiofilm activity against Pseudomonas aeruginosa assessed as reduction in biofilm viability at 8 times MIC by crystal violet staining based assay relative to control; assay type: functional
Cell membrane [10] = assay: Induction of outer membrane permeabilization in Pseudomonas aeruginosa assessed as increase in NPN uptake by measuring increase in fluorescence intensity at 0.5 to 8 times MIC by NPN-dye based fluorescence analysis; details: DDE = dose-dependent effect
Pseudomonas aeruginosa [11] = assay: Induction of […] membrane potential depolarization in Pseudomonas aeruginosa assessed as fold increase in fluorescence intensity at 8 times MIC by DiSC35 dye based fluorescence assay; assay type: functional
[12] = Cytotoxicity against human HepG2 cells assessed as cell viability at 1 times MIC relative to control; assay type: toxicity, cell-based; details: read-out: Activity
Cell membrane [13] = assay: Induction of inner membrane permeabilization in Pseudomonas aeruginosa assessed as increase in PI uptake by measuring increase in fluorescence intensity at 0.5 to 8 times MIC by propidium iodide staining based fluorescence analysis; details: DDE = dose-dependent effect
Cell membrane [14] = assay: Induction of cell membrane permeabilization in Pseudomonas aeruginosa assessed as increase in number of cells with damaged membranes by measuring increase in red fluorescence at 1 times MIC measured for 10 mins by PI staining based fluorescence analysis
Pseudomonas aeruginosa [15] = assay: Potency index, ratio of Berberine MIC to test compound MIC for antibacterial activity against Pseudomonas aeruginosa assessed as inhibition of bacterial growth by CLSI based continuous dilution method; assay type: functional
Pseudomonas aeruginosa [16] = assay: Potency index, ratio of Metronidazole MIC to test compound MIC for antibacterial activity against Pseudomonas aeruginosa assessed as inhibition of bacterial growth by CLSI based continuous dilution method; assay type: functional
Pseudomonas aeruginosa [17] = assay: Antibiofilm activity against Pseudomonas aeruginosa assessed as reduction in biofilm viability at 0.5 to 8 times MIC by crystal violet staining based assay; assay type: functional, organism-based; details: DDE = dose-dependent effect
Cell membrane [18] = assay: Disruption of membrane integrity in Pseudomonas aeruginosa assessed as increase in protein leakage by measuring reduction in fluorescence intensity at 0.5 to 8 times MIC incubated for 6 hrs by bradford assay
Cell membrane [19] = assay: Disruption of membrane integrity in Pseudomonas aeruginosa assessed as reduction in intact bacterial cells by measuring reduction in fluorescence intensity at 0.5 to 8 times MIC by calcein-AM dye based assay
Cell membrane [20] = assay: Disruption of membrane integrity in Pseudomonas aeruginosa assessed as increase in nucleic acid leakage by measuring fold reduction in optical density at 8 times MIC by absorption spectrometry analysis
Pseudomonas aeruginosa [21] = assay: Potency index, ratio of norfloxacin MIC to test compound MIC for antibacterial activity against Pseudomonas aeruginosa assessed as inhibition of bacterial growth by CLSI based continuous dilution method; assay type: functional
[22] = Cytotoxicity against human HepG2 cells assessed as reduction in cell viability; assay type: toxicity, cell-based
Pseudomonas aeruginosa [23] = assay: Induction of drug resistance in Pseudomonas aeruginosa assessed as reduction in susceptibility measured after 6 passages; assay type: functional
Pseudomonas aeruginosa [24] = assay: Induction of drug resistance in Pseudomonas aeruginosa assessed as fold increase in MIC measured after 11 passages; assay type: functional

SMILES | MIC (Acinetobacter baumannii) [µM] | MIC (Staphylococcus aureus [1]) [µM] | MIC (Escherichia coli [2]) [µM] | MIC (Staphylococcus aureus [3]) [µM] | MIC (Klebsiella pneumoniae) [µM] | MIC (Staphylococcus aureus [4]) [µM] | MIC (Pseudomonas aeruginosa [5]) [µM] | MIC (Escherichia coli [6]) [µM] | MIC (Pseudomonas aeruginosa [7]) [µM] | MIC (Staphylococcus aureus [8]) [µM] | Activity (Aspergillus fumigatus) | MIC (Enterococcus faecalis) [µM] | also measured
COc1cc(/C=N/OC(C)(C)C)c2c(c1OCC(O)Cn1c([N+](=O)[O-])cnc1C)CN1CCc3cc4c(cc3C1C2)OCO4 (centres undefined) | 211 (≈ 128 µg/mL) | 105 (≈ 63.8 µg/mL) | 422 (≈ 256 µg/mL) | 52 (≈ 31.6 µg/mL) | 52 (≈ 31.6 µg/mL) | 52 (≈ 31.6 µg/mL) | 52 (≈ 31.6 µg/mL) | 211 (≈ 128 µg/mL) | 211 (≈ 128 µg/mL) | 211 (≈ 128 µg/mL) | Active | 211 (≈ 128 µg/mL) | –
CO/N=C/c1cc(OC)c(OCC(O)Cn2c([N+](=O)[O-])cnc2C)c2c1CC1c3cc4c(cc3CCN1C2)OCO4 (centres undefined) | 905 (≈ 512 µg/mL) | 452 (≈ 256 µg/mL) | 905 (≈ 512 µg/mL) | 905 (≈ 512 µg/mL) | 905 (≈ 512 µg/mL) | 56 (≈ 31.7 µg/mL) | 113 (≈ 63.9 µg/mL) | 905 (≈ 512 µg/mL) | 905 (≈ 512 µg/mL) | 905 (≈ 512 µg/mL) | Active | 226 (≈ 128 µg/mL) | –
Cc1ncc([N+](=O)[O-])n1CCO [METRONIDAZOLE] | 1500 (≈ 256 µg/mL) | 1500 (≈ 256 µg/mL) | 1500 (≈ 256 µg/mL) | 1500 (≈ 256 µg/mL) | 374 (≈ 64 µg/mL) | 1500 (≈ 256 µg/mL) | 1500 (≈ 256 µg/mL) | 1500 (≈ 256 µg/mL) | 1500 (≈ 256 µg/mL) | 1500 (≈ 256 µg/mL) | – | 748 (≈ 128 µg/mL) | –
COc1cc(/C=N/O)c2c(c1OCC(O)Cn1c([N+](=O)[O-])cnc1C)CN1CCc3cc4c(cc3C1C2)OCO4 (centres undefined) | 58 (≈ 32 µg/mL) | 58 (≈ 32 µg/mL) | 15 (≈ 8.27 µg/mL) | 116 (≈ 64 µg/mL) | 464 (≈ 256 µg/mL) | 58 (≈ 32 µg/mL) | 58 (≈ 32 µg/mL) | 29 (≈ 16 µg/mL) | 116 (≈ 64 µg/mL) | 232 (≈ 128 µg/mL) | Active | 29 (≈ 16 µg/mL) | –
COc1cc(/C=N/OCc2ccccc2)c2c(c1OCC(O)Cn1c([N+](=O)[O-])cnc1C)CN1CCc3cc4c(cc3C1C2)OCO4 (centres undefined) | 24 (≈ 15.4 µg/mL) | 49 (≈ 31.4 µg/mL) | 24 (≈ 15.4 µg/mL) | 49 (≈ 31.4 µg/mL) | 24 (≈ 15.4 µg/mL) | 24 (≈ 15.4 µg/mL) | 199 (≈ 128 µg/mL) | 99 (≈ 63.5 µg/mL) | 24 (≈ 15.4 µg/mL) | 49 (≈ 31.4 µg/mL) | Active | 49 (≈ 31.4 µg/mL) | Activity (Pseudomonas aeruginosa [9]): 46.4%; Activity (Cell membrane [10]): Dde; fold change (FC) (Pseudomonas aeruginosa [11]): 4; viability at 1 times MIC [12]: > 80%; Activity (Cell membrane [13]): Dde; Activity (Cell membrane [14]): Active; Ratio (Pseudomonas aeruginosa [15]): 63; Ratio (Pseudomonas aeruginosa [16]): 62; Activity (Pseudomonas aeruginosa [17]): Dde; Activity (Cell membrane [18]): Active; Activity (Cell membrane [19]): Active; fold change (FC) (Cell membrane [20]): 0.1; Ratio (Pseudomonas aeruginosa [21]): 2; IC50 [22]: > 50 µM
COc1ccc2cc3[n+](cc2c1OC)CCc1cc2c(cc1-3)OCO2 [BERBERINE] | 190 | 380 | 380 | 761 | 190 | 380 | 380 | 380 | 1520 | 190 | – | 380 | –
CCCCCO/N=C/c1cc(OC)c(OCC(O)Cn2c([N+](=O)[O-])cnc2C)c2c1CC1c3cc4c(cc3CCN1C2)OCO4 (centres undefined) | 206 (≈ 128 µg/mL) | 824 (≈ 512 µg/mL) | 824 (≈ 512 µg/mL) | 824 (≈ 512 µg/mL) | 824 (≈ 512 µg/mL) | 824 (≈ 512 µg/mL) | 824 (≈ 512 µg/mL) | 206 (≈ 128 µg/mL) | 824 (≈ 512 µg/mL) | 824 (≈ 512 µg/mL) | Active | 824 (≈ 512 µg/mL) | –
CCn1cc(C(=O)O)c(=O)c2cc(F)c(N3CCNCC3)cc21 [NORFLOXACIN] | 25 (≈ 7.98 µg/mL) | 25 (≈ 7.98 µg/mL) | 50 (≈ 16 µg/mL) | 25 (≈ 7.98 µg/mL) | 25 (≈ 7.98 µg/mL) | 100 (≈ 31.9 µg/mL) | 12 (≈ 3.83 µg/mL) | 25 (≈ 7.98 µg/mL) | 50 (≈ 16 µg/mL) | 3 (≈ 0.958 µg/mL) | – | 6 (≈ 1.92 µg/mL) | Activity (Pseudomonas aeruginosa [23]): Active; fold change (FC) (Pseudomonas aeruginosa [24]): 8
CCCCCCO/N=C/c1cc(OC)c(OCC(O)Cn2c([N+](=O)[O-])cnc2C)c2c1CC1c3cc4c(cc3CCN1C2)OCO4 (centres undefined) | 805 (≈ 512 µg/mL) | 805 (≈ 512 µg/mL) | 805 (≈ 512 µg/mL) | 805 (≈ 512 µg/mL) | 805 (≈ 512 µg/mL) | 50 (≈ 31.8 µg/mL) | 805 (≈ 512 µg/mL) | 805 (≈ 512 µg/mL) | 805 (≈ 512 µg/mL) | 805 (≈ 512 µg/mL) | Active | 805 (≈ 512 µg/mL) | –
CCCCO/N=C/c1cc(OC)c(OCC(O)Cn2c([N+](=O)[O-])cnc2C)c2c1CC1c3cc4c(cc3CCN1C2)OCO4 (centres undefined) | 843 (≈ 512 µg/mL) | 843 (≈ 512 µg/mL) | 843 (≈ 512 µg/mL) | 843 (≈ 512 µg/mL) | 843 (≈ 512 µg/mL) | 843 (≈ 512 µg/mL) | 843 (≈ 512 µg/mL) | 843 (≈ 512 µg/mL) | 843 (≈ 512 µg/mL) | 843 (≈ 512 µg/mL) | Active | 843 (≈ 512 µg/mL) | –
CCO/N=C/c1cc(OC)c(OCC(O)Cn2c([N+](=O)[O-])cnc2C)c2c1CC1c3cc4c(cc3CCN1C2)OCO4 (centres undefined) | 883 (≈ 512 µg/mL) | 883 (≈ 512 µg/mL) | 883 (≈ 512 µg/mL) | 883 (≈ 512 µg/mL) | 883 (≈ 512 µg/mL) | 883 (≈ 512 µg/mL) | 883 (≈ 512 µg/mL) | 883 (≈ 512 µg/mL) | 883 (≈ 512 µg/mL) | 883 (≈ 512 µg/mL) | Active | 883 (≈ 512 µg/mL) | –
CCCO/N=C/c1cc(OC)c(OCC(O)Cn2c([N+](=O)[O-])cnc2C)c2c1CC1c3cc4c(cc3CCN1C2)OCO4 (centres undefined) | 863 (≈ 512 µg/mL) | 863 (≈ 512 µg/mL) | 863 (≈ 512 µg/mL) | 863 (≈ 512 µg/mL) | 863 (≈ 512 µg/mL) | 215 (≈ 128 µg/mL) | 863 (≈ 512 µg/mL) | 215 (≈ 128 µg/mL) | 863 (≈ 512 µg/mL) | 863 (≈ 512 µg/mL) | Active | 863 (≈ 512 µg/mL) | –
C=CCO/N=C/c1cc(OC)c(OCC(O)Cn2c([N+](=O)[O-])cnc2C)c2c1CC1c3cc4c(cc3CCN1C2)OCO4 (centres undefined) | 216 (≈ 128 µg/mL) | 108 (≈ 63.9 µg/mL) | 433 (≈ 256 µg/mL) | 54 (≈ 31.9 µg/mL) | 54 (≈ 31.9 µg/mL) | 54 (≈ 31.9 µg/mL) | 54 (≈ 31.9 µg/mL) | 216 (≈ 128 µg/mL) | 216 (≈ 128 µg/mL) | 216 (≈ 128 µg/mL) | Active | 216 (≈ 128 µg/mL) | –
